The text below walks through data of PubChem BioAssay AID192 (DTP/NCI, 2004).

Several values for one entry are separate records, joined by “and”; a condition that tells them apart may be missing. Equal entries are not always repeated. Inconclusive results and toxic doses are left out.

For this experiment, the system named is BDF1 mice, B16 melanoma ip, median survival T/C. Description: NCI In Vivo Anticancer Drug Screen. Data for tumor model B16 Melanoma (intraperitoneal) in B6D2F1 (BDF1) mice. The following applies: endpoint: median survival time, higher = longer survival. The method, boiled down: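 Read-out: survival or tumor size, given as treated/control ratio. Controls received vehicle only; animals bore transplantable tumors.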

Setting [1] is: dose: 25.0 mg/kg/injection, schedule: Q01DX009 (ip), vehicle: Klucel (hydroxypropylcellulose) (HPC).
The mark [2] stands for this setting: dose: 50.0 mg/kg/injection, schedule: Q01DX009 (ip), vehicle: Klucel (hydroxypropylcellulose) (HPC).
Setting [3] is: dose: 100.0 mg/kg/injection, schedule: Q01DX009 (ip), vehicle: Klucel (hydroxypropylcellulose) (HPC).
The mark [4] stands for this setting: dose: 200.0 mg/kg/injection, schedule: Q01DX009 (ip), vehicle: Klucel (hydroxypropylcellulose) (HPC).
Where [5] appears, read: dose: 1.56 mg/kg/injection, schedule: Q01DX009 (ip), vehicle: saline.
The mark [6] stands for this setting: dose: 6.25 mg/kg/injection, schedule: Q01DX009 (ip), vehicle: saline.
The mark [7] stands for this setting: dose: 100.0 mg/kg/injection, schedule: Q01DX009 (ip), vehicle: saline with Tween-80.
Setting [8] is: dose: 200.0 mg/kg/injection, schedule: Q01DX009 (ip), vehicle: saline with Tween-80.
The mark [9] stands for this setting: dose: 6.25 mg/kg/injection, schedule: Q01DX009 (ip), vehicle: Klucel (hydroxypropylcellulose) (HPC).
The mark [10] stands for this setting: dose: 12.5 mg/kg/injection, schedule: Q01DX009 (ip), vehicle: Klucel (hydroxypropylcellulose) (HPC).
[11] abbreviates: dose: 50.0 mg/kg/injection, schedule: Q04DX003 (ip), vehicle: Klucel (hydroxypropylcellulose) (HPC).
Where [12] appears, read: dose: 100.0 mg/kg/injection, schedule: Q04DX003 (ip), vehicle: Klucel (hydroxypropylcellulose) (HPC).

For the compound `COC(=O)c1ccc(=O)c2nc3/c(=C/O)c(O)cc(=O)c3[nH]c12`, the T/C (dose: 0.01 mg/kg/injection, schedule: Q01DX009 (ip), vehicle: saline with Tween-80) was 102 % of control; the T/C (dose: 0.01 mg/kg/injection, schedule: Q04DX003 (ip), vehicle: saline with Tween-80) is 91 % of control; the T/C (dose: 0.02 mg/kg/injection, schedule: Q01DX009 (ip), vehicle: saline with Tween-80) was 90 % of control; the T/C (dose: 0.02 mg/kg/injection, schedule: Q04DX003 (ip), vehicle: saline with Tween-80) was 102 % of control; the T/C (dose: 0.04 mg/kg/injection, schedule: Q01DX009 (ip), vehicle: saline with Tween-80) is 95 % of control; the T/C (dose: 0.04 mg/kg/injection, schedule: Q04DX003 (ip), vehicle: saline with Tween-80) is 106 % of control.

In the case of `O=CC(NC(=O)N(CCF)N=O)C(O)C(O)C(O)CO` (centres undefined), the T/C reads like this: (dose: 3.12 mg/kg/injection, schedule: Q01DX001 (ip), vehicle: saline) 100 % of control; (dose: 25.0 mg/kg/injection, schedule: Q01DX001 (ip), vehicle: saline) 171 % of control; (dose: 50.0 mg/kg/injection, schedule: Q01DX001 (ip), vehicle: saline) 189 % of control; (dose: 100.0 mg/kg/injection, schedule: Q01DX001 (ip), vehicle: saline) 231 % of control.

For `Cc1cc(=O)[nH]c(N/N=C/c2ccccc2O)n1`, the T/C runs as follows: under setting [1], 93 % of control; under setting [2], 87 % of control; under setting [3], 87 % of control; under setting [4], 87 % of control.

Consider `CN1CCN(CCNc2ccc(CO)c3sc4ccccc4c(=O)c23)CC1`, for which the T/C under setting [1] is 110 % of control and the T/C under setting [2] is 116 % of control.

As for `CCC/C=C/C=C/C1CC(O)C(O)C(=O)C1C=O` (centres undefined), the T/C reads like this: (dose: 1.6 mg/kg/injection, schedule: Q01DX009 (ip), vehicle: saline with Tween-80) 105 % of control; (dose: 3.12 mg/kg/injection, schedule: Q01DX009 (ip), vehicle: saline with Tween-80) 104 % of control; (dose: 6.25 mg/kg/injection, schedule: Q01DX009 (ip), vehicle: saline with Tween-80) 98 % of control; (dose: 12.5 mg/kg/injection, schedule: Q01DX009 (ip), vehicle: saline with Tween-80) 98 % of control and 100 % of control.

Turning to `CS(C)=O`, the T/C is, setting by setting: (dose: 1:200.0 dilution, schedule: Q03HX088 (ip), vehicle: saline) 89 % of control; (dose: 1:400.0 dilution, schedule: Q03HX088 (ip), vehicle: saline) 89 % of control; (dose: 1.5 grams/kg/injection, schedule: Q01DX009 (ip), vehicle: saline) 96 % of control and 101 % of control; (dose: 3.0 grams/kg/injection, schedule: Q01DX009 (ip), vehicle: saline) 106 % of control and 108 % of control; (dose: 6.0 grams/kg/injection, schedule: Q01DX009 (ip), vehicle: saline) 97 % of control.

Take `COC(=O)C1C2CC3c4[nH]c5cc(OC)ccc5c4CCN3CC2CC(OC)C1OC` (centres undefined): the T/C reads like this: (dose: 0.25 mg/kg/injection, schedule: Q01DX009 (ip), vehicle: saline) 102 % of control; (dose: 0.5 mg/kg/injection, schedule: Q01DX009 (ip), vehicle: saline) 94 % of control; (dose: 1.0 mg/kg/injection, schedule: Q01DX009 (ip), vehicle: saline) 105 % of control; under setting [5], 100 % of control; (dose: 3.12 mg/kg/injection, schedule: Q01DX009 (ip), vehicle: saline) 98 % of control; (dose: 4.0 mg/kg/injection, schedule: Q01DX009 (ip), vehicle: saline) 94 % of control and 100 % of control. Besides, the T/C under setting [6] was 103 % of control; the T/C (dose: 8.0 mg/kg/injection, schedule: Q01DX009 (ip), vehicle: saline) is 104 % of control; the T/C (dose: 12.5 mg/kg/injection, schedule: Q01DX009 (ip), vehicle: saline) was 106 % of control; the T/C (dose: 16.0 mg/kg/injection, schedule: Q01DX009 (ip), vehicle: saline) was 99 % of control; the T/C (dose: 25.0 mg/kg/injection, schedule: Q01DX009 (ip), vehicle: saline) was 101 % of control; the T/C (dose: 32.0 mg/kg/injection, schedule: Q01DX009 (ip), vehicle: saline) was 94 % of control.

On to `Cc1cc2cc3c(C)cc(=O)oc3c(C)c2o1`, for which the T/C reads like this: under setting [7], 119 % of control; under setting [8], 117 % of control; (dose: 400.0 mg/kg/injection, schedule: Q01DX009 (ip), vehicle: saline with Tween-80) 100 % of control.

Turning to `CCOC(=O)C(NC(=O)C(Cc1ccc(N(CCCl)CCCl)cc1)NC(C)=O)C(C)C` (centres undefined), the T/C is, setting by setting: under setting [5], 99 % of control; (dose: 3.13 mg/kg/injection, schedule: Q01DX009 (ip), vehicle: saline) 98 % of control; under setting [6], 102 % of control; (dose: 12.5 mg/kg/injection, schedule: Q04DX003 (ip), vehicle: saline) 105 % of control; (dose: 25.0 mg/kg/injection, schedule: Q04DX003 (ip), vehicle: saline) 97 % of control; (dose: 50.0 mg/kg/injection, schedule: Q04DX003 (ip), vehicle: saline) 102 % of control.

As to `N#CC(C#N)=C/C=C/c1cccc([N+](=O)[O-])c1`, the T/C is, setting by setting: (dose: 3.12 mg/kg/injection, schedule: Q01DX009 (ip), vehicle: Klucel (hydroxypropylcellulose) (HPC)) 110 % of control; under setting [9], 104 % of control; under setting [10], 115 % of control.

As to `CC(Cc1ccccc1)NC(C#N)c1ccccc1` (centres undefined), the T/C was 100 % of control under setting [9], 87 % of control under setting [10] and 90 % of control under setting [1].

For the compound `C=C(C)C12OC3(/C=C/C=C/CCCCC)OC1C1C4OC4(CO)C(O)C4(O)C(=O)C(C)=CC4C1(O3)C(C)C2OC(=O)c1ccccc1` (centres undefined), the T/C was 104 % of control (dose: 0.5 micrograms/kg/injection, schedule: Q01DX009 (ip), vehicle: saline); 104 % of control (dose: 1.0 micrograms/kg/injection, schedule: Q01DX009 (ip), vehicle: saline); 105 % of control (dose: 1.9 micrograms/kg/injection, schedule: Q01DX009 (ip), vehicle: saline); 104 % of control (dose: 3.8 micrograms/kg/injection, schedule: Q01DX009 (ip), vehicle: saline); 97 % of control (dose: 7.5 micrograms/kg/injection, schedule: Q01DX009 (ip), vehicle: saline); 104 % of control (dose: 15.0 micrograms/kg/injection, schedule: Q01DX009 (ip), vehicle: saline). Also, for the setting “dose: 30.0 micrograms/kg/injection, schedule: Q01DX009 (ip), vehicle: saline”, the T/C was 98 % of control.

Consider `O=C(Nc1ccc(Cl)cc1)Nc1ccccc1F`, for which the T/C is 89 % of control under setting [7] and 86 % of control under setting [8].

Take `C[As](C)[Se]C1OC(CO)C(O)C(O)C1O` (centres undefined): the T/C was 112 % of control under setting [10], 106 % of control under setting [1] and 104 % of control under setting [2].

Turning to `COc1ccc(/C=C\C(=O)/C=C/c2ccc(OC)cc2)cc1`, the T/C reads like this: (dose: 25.0 mg/kg/injection, schedule: Q04DX003 (ip), vehicle: Klucel (hydroxypropylcellulose) (HPC)) 97 % of control; under setting [11], 97 % of control; under setting [12], 97 % of control.

Take `OCC#CCOCC(O)CCl` (centres undefined): the T/C by setting is: (dose: 25.0 mg/kg/injection, schedule: Q01DX009 (ip), vehicle: water) 102 % of control; (dose: 50.0 mg/kg/injection, schedule: Q01DX009 (ip), vehicle: water) 98 % of control; (dose: 100.0 mg/kg/injection, schedule: Q01DX009 (ip), vehicle: water) 92 % of control.

Consider `Cc1ccc(NC(=O)c2ccccc2C(=O)O)cc1Cl`, for which the T/C under setting [3] is 94 % of control and the T/C under setting [4] is 94 % of control.

For the compound `O=c1[nH]c2ccc(Br)cc2c(=O)o1`, the T/C reads like this: (dose: 25.0 mg/kg/injection, schedule: Q01DX009 (ip), vehicle: saline with Tween-80) 91 % of control; (dose: 50.0 mg/kg/injection, schedule: Q01DX009 (ip), vehicle: saline with Tween-80) 91 % of control; under setting [7], 86 % of control and 88 % of control; under setting [8], 86 % of control.

As to `Cc1ccccc1NC(=O)Nc1cccc(C)c1C`, the T/C reads like this: under setting [11], 90 % of control; under setting [12], 96 % of control; (dose: 200.0 mg/kg/injection, schedule: Q04DX003 (ip), vehicle: Klucel (hydroxypropylcellulose) (HPC)) 93 % of control.
